Reference: patent US9988372B2, “Crystalline form of 5-chloro-N-({(5S)-2-oxo-3-[4-(5,6-dihydro-4H-[1,2,4]triazin-1-yl)phenyl]-1,3-oxazolidin-5-yl}methyl)thiophene-2-carboxamide methanesulfonate and pharmaceutical composition comprising same” (GREEN CROSS CORPORATION, priority 2014, dated 2018)
“Also recorded” adds a separate entry of the source.

Columns and labels:
Assay type in all cases: physicochemical
[1] = Stability in solvent slurry system (interconversion of crystalline forms, final form identified by DSC); details: for Final form (DSC peak): slurry; for Interconversion of crystalline form while stirred in solvent: stirred in the solvent for 24 hours, various solvents (summary of Table 4)
Description: 1) Measurement of Stability in Solvent Slurry System
In order to determine whether one crystalline form is interconverted into another crystalline form in a stirred solvent, a slurry test was performed in different solvents at room temperature.
First, an automated polyblock reactor was filled with each of the solvents listed in Table 4 below at room temperature (30±5° C.). […] Thereafter, an anti-solvent listed in Table 4 below (n-butanol or IPA) was added into the reactor for 30±15 minutes and stirred for 30±15 minutes until a transparent solution was obtained. The resultant was cooled to a temperature of 0±5° C., stirred for 2-3 hours, and then filtered at 0±5° C. The obtained material was dried at 60±5° C. for 3 to 4 hours in VTD, and then DSC analysis was performed for the obtained sample to identify the final crystalline form.
DSC analysis was performed for the obtained sample to identify the final crystalline form.

[2] = Interconversion at high temperature (final form identified by DSC); details: for Final form (DSC peak): dried at 80±5° C. in non-vacuum state, then cooled to 30±5° C., methanesulfonate; for Stability at high temperature: summary of Table 5
Description: 2) Measurement of Interconversion at High Temperature
In order to determine the interconversion of crystalline forms at a high temperature, each of Crystalline Forms 1 and 5 was dried at 80±5° C. in non-vacuum state, and then cooled to a temperature of 30±5° C. DSC analysis was performed for the obtained samples to identify the final crystalline form.

[3] = Stability under physical stimulus (multi-milling, manual grinding, humidification; final form identified by DSC); details: methanesulfonate; for Stability under physical stimulus: milling, grinding and humidification (summary of Table 6)
Description: 3) Measurement of Stability Under Physical Stimulus
Multi-milling, manual grinding and humidification test were performed for the crystalline forms of the present invention to confirm their stability under physical stimulus. For multi-milling test, each of Crystalline Forms 1 and 5 was milled at 3,000 rpm by using a prototype multi-mill instrument (Sreenex Machines Pvt. Ltd.). For manual grinding, each of the crystalline forms was gradually ground by using a pestle and mortar. In the humidification test, Crystalline Forms 1 and 5 were stored at 30° C. and 90% RH for 24 hours.
DSC analysis was performed for the crystalline forms obtained from the tests to identify the final crystalline form.

[4] = Solubility in methanol solvent; details: in the methanol solvent; methanesulfonate
Description: The solubility of each of Crystalline Forms 1 and 5 of the present invention was measured after being dissolved in the methanol solvent.

[5] = Stability in solvent slurry system (interconversion of crystalline forms, final form identified by DSC); details: Dimethyl acetamide: EA, solvent 3 vol, anti-solvent 20 vol
[6] = Methanol: IPA, solvent 7 vol, anti-solvent 20 vol, methanesulfonate
[7] = Methanol: n-butanol, solvent 7 vol, anti-solvent 20 vol, methanesulfonate
[8] = solvent system Acetonitrile 10 vol, no anti-solvent, methanesulfonate
[9] = solvent system Isopropyl alcohol (IPA) 10 vol, no anti-solvent, methanesulfonate

Final form (DSC peak) [1, 6] | Final form (DSC peak) [1, 7] | Final form (DSC peak) [1, 8] | Final form (DSC peak) ([1]; solvent system Hexane 10 vol, no anti-solvent) | Final form (DSC peak) [1, 9] | Interconversion of crystalline form while stirred in solvent ([1]; methanesulfonate) | Final form (DSC peak) [2] | Stability at high temperature [2] | Final form ([3]; Humidification, stored at 30° C. and 90% RH for 24 hours) | Final form ([3]; Manual grinding with pestle and mortar) | Final form ([3]; Multi-milling at 3,000 rpm) | solubility [4] [mg/mL] | Final form (DSC peak) ([1]; solvent system Ethyl acetate (EA) 10 vol, no anti-solvent) | Final form (DSC peak) ([1]; solvent system Heptane 10 vol, no anti-solvent) | Final form (DSC peak) ([1]; solvent system Methyl tert-butyl ether (MTBE) 10 vol, no anti-solvent) | Final form (DSC peak) ([1]; solvent system n-butanol 10 vol, no anti-solvent) | Final form (DSC peak) [5] | Compound | Stability under physical stimulus [3]
Mixed crystalline forms | Crystalline Form 5 (187.7) | Mixed crystalline forms | Mixed crystalline forms | Crystalline Form 5 (187.0) | tends to convert into Crystalline Form 5 | Crystalline Form 1 (178.0) | stable at high temperature | Crystalline Form 1 | Crystalline Form 1 | Crystalline Form 1 | 70 | – | – | – | – | – | O=C(NC[C@H]1CN(c2ccc(N3CCNC=N3)cc2)C(=O)O1)c1ccc(Cl)s1 [Crystalline Form 1, 5-chloro-N-({(5S)-2-oxo-3-[4-(5,6-dihydro-4H-[1,2,4]triazin-1-yl)phenyl]-1,3-oxazolidin-5-yl}methyl)thiophene-2-carboxamide methanesulfonate] | stability without change of crystalline forms; also recorded: stable under physical stimulus
Crystalline Form 5 (186.80) | Crystalline Form 5 (186.27) | Crystalline Form 5 (186.88) | – | Crystalline Form 5 (186.33) | maintains the initial form | Crystalline Form 5 (187.0) | stable at high temperature | – | – | – | 30 | Crystalline Form 5 (186.48) | Crystalline Form 5 (186.44) | Crystalline Form 5 (186.45) | Crystalline Form 5 (186.76) | Crystalline Form 5 (187.05) | O=C(NC[C@H]1CN(c2ccc(N3CCNC=N3)cc2)C(=O)O1)c1ccc(Cl)s1 [Crystalline Form 5, 5-chloro-N-({(5S)-2-oxo-3-[4-(5,6-dihydro-4H-[1,2,4]triazin-1-yl)phenyl]-1,3-oxazolidin-5-yl}methyl)thiophene-2-carboxamide methanesulfonate] | stability without change of crystalline forms; also recorded: stable under physical stimulus
